Reference: patent EP0795330A1, “Medicament for the treatment of insomnia” (ELI LILLY AND COMPANY, priority 1996, dated 1997)

Experiments:
5-HT1C receptor = target: T1, 5-HT1C receptor (Homo sapiens, UniProt P28335); assay: pharmacological studies, 5-HT1C receptor activity
T1 sequence (P28335 33-458): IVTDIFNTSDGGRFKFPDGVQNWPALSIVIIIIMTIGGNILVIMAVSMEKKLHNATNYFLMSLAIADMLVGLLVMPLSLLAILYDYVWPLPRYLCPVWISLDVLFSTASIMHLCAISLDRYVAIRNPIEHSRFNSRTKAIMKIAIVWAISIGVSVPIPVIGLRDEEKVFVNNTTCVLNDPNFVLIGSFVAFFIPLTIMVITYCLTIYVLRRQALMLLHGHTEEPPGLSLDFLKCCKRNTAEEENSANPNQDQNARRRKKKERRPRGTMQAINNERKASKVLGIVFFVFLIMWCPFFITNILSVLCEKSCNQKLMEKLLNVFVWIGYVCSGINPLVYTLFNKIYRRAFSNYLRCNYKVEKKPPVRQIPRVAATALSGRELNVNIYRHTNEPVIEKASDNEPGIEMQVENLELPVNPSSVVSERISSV

[1] = detection of radiolabelled olanzapine in saliva; format: in vivo, patients
Description: For example, in the treatment of adult humans, dosages of from 5 to 25 mg per day may be used. A once a day dosage is normally sufficient. For treatment of insomnia, a dose range of from 5 to 100 mg, is suitable, while a dosage of from 5 to 25 mg per day is preferred.

**Q.** With `Cc1cc2c(s1)Nc1ccccc1N=C2N1CCN(C)CC1` [olanzapine, 2-methyl-4-(4-methyl-l-piperazinyl)-10H-thieno[2,3-b][1,5] benzodiazepine] as the compound, how does the “activity at the 5-HT1C receptor” value (5-HT1C receptor) read?
**A.** active

**Q.** And the “detection in the saliva” value [1]?
**A.** can be detected in the saliva
